Patent publication EP2985032B1, “GLYX FOR USE IN THE TREATMENT OF ALZHEIMER'S DISEASE, PARKINSON'S DISEASE OR HUNTINGTON'S DISEASE” (Northwestern University, priority 2009, dated 2019)
No end group written: not given here.

Assays:
rats [1] = experiment: Porsolt test (Forced Swim Test) of depression; assay type: in vivo; design: Mean Immobility Time: unit not given beside the values; conditions: for maximum reduction in floating compared to saline vehicle / Mean Immobility Time: Example 2; for maximum reduction in floating compared to saline vehicle: P < .01
Protocol: For the evaluation of the antidepressant actions of GLYX-13, the effect of GLYX-13 in the Porsolt test of depression was examined in rats. Porsolt testing is the most commonly used test for assessment of depression in animal model. Porsolt testing, also known as Forced Swim Test, is based on a behavioral trait that is sensitive to changes in affective state. During this test, the animal is placed in a tank (18 cm diameter x 45 cm height) filled to 30 cm with 22-23°C water. After placing the animal in the tank, the amount of time for which the rat is immobile when it stops struggling is measured. Porsolt test is based on the fact that antidepressants increase the latency to immobility and decrease the time for which the rat is immobile. […] The interpretation of the Porsolt test is that the antidepressants reinstate active coping mechanisms and decrease the passive immobility evoked by stress.
(§1) In order to evaluate the effectiveness of GLYX-13 as antidepressant, three month old FBNF1 rats were separated into two groups of 9 animals. The first group of rats was intravenously injected with 10 mg/kg GLYX-13 and the second group of animals was intravenously injected with PBS vehicle (1 ml/kg) in a blind manner via chronic subdural femoral vein access ports. Both groups of animals were injected 10 to 15 minutes before the start of testing.
For Porsolt testing, animals were given a 15 minute pre-test habituation in the tank to induce learned helplessness on day one. Following this, on the subsequent day, the animals were injected with GLYX-13 or vehicle 10-15 minutes before being placed into the tank for a 5 minute test session. After placing the animals in the tank, the amount of time for which each animal is immobile when it stops struggling (Mean Immobility Time) was measured. Decrease in Mean Immobility Time is a measure of the effectiveness of the antidepressant.
A second experiment was performed in the same manner as Example 1, except that 2-3 month Sprague-Dawley rats were used, and treated with either intravenous (1, 3, 10, 32 mg / kg), subcutaneous (1,3, 10, 32, 56, 100 mg / kg) injections of GLYX-13 or saline vehicle (1 mg / ml) 15 (i.v.) or 20 (s.c.) min before the start of the final 5 min test session. Ketamine (10 mg / kg i.p.) was given 60 min before the start of testing (Garcia et al., (2008) Prog Neuropsychopharmacol Biol Psychiatry, 32, 140-144). Subcutaneous administration of 10 mg/kg ketamine followed by testing after 20 min post dosing produced severe dissociative side effects, as shown in Figure 3.
To determine whether GLYX-13 acts in an area of the brain that is clinically relevant for depression, GLYX-13 was administered to either the medial prefrontal cortex (MPFC), which is associated with mood and depression, or to the motor cortex (Fig. 4). Mean time spent immobile in the Porsolt test was determined for groups of 10 three-month old male Fisher Brown Norway F1 (FBNF1) rats pretreated with a single injection of GLYX-13 (1, 10 ug / side) or a single saline vehicle injection (0.5 ul / 1 min) bilaterally into the medial prefrontal cortex or motor cortex (dorsal control) in animals with surgically implanted chronic indwelling cannulae aimed at the MPFC. Microinjections were made 1 week after surgery, and Porsolt testing was conducted 20 min post injection. Animals received a single 15 min training swim session one day before dosing.
To determine whether the antidepressant effect of GLYX-13 was specific to the sequence of the GLXY-13 peptide, mean time (sec) spent floating in the Porsolt test was determined in groups of 12 three-month old Sprague Dawley rats administered with GLYX-13 (TPPT-NH2; 3 mg / kg, i.v. tail vein), a scrambled peptide ([…]; 3 mg / kg i.v. tail vein), or 0.9% saline vehicle (1 ml / kg, i.v. tail vein). Administration occurred 60 min before the 5 min. testing session. Animals received a 15 min. training swim session one day before dosing. […]

rats [2] = experiment: Open field test of anxiety; assay type: in vivo; conditions: for increase in the amount of time spent in the center of the field compared to vehicle: Example 6, P < .05
Protocol: The purpose of this study was to evaluate action of GLYX-13 on anxiety. In order to gauge the effect of GLYX-13 in rats, the open field test of anxiety was conducted. The open field test is a widely used neophobic test of anxiety (see, Treit D, Fundytus M. Thigmotaxis as a test for anxiolytic activity in rats. Pharmachol Biochem Behav 1989;31:959-62.).
The open field area used for the open field test generally consists of an empty and bright square (or rectangular) arena, surrounded by walls. For the current study, an open field of 45 cm X 35 cm X 20 cm high was used. The rat was placed in the center of the arena and its behavior recorded over a predefined period of time (usually between 2 to 15 min). The open field test is based on the natural tendency of the rats to avoid open spaces. The open field test is based on the conflict between the innate anxiety that rats have of the central area of the open space versus their desire to explore new environments. When rats are in an anxious state, they have a natural tendency to stay near the walls. This natural tendency of the rats to stay close to the walls is called thigmotaxis. In this context, anxiety-related behavior is measured by the degree to which the rat avoids the center of the open field test. Determining the propensity of the rat to avoid the open field can be determined by measuring the number of center crosses made by the rats over a predefined interval of time, or by determining the amount of time the rat stays in the center of the field.
as §1, with “an anxiolytic, two groups of” for “antidepressant,”, “used. The first group was composed” for “separated into two groups”, “13 rats and the second group was composed of 11 rats.” for “9 animals.”, “rats” for “animals”, “testing. After GLYX-13 injections, both groups of rats were tested in the open field.” for “testing.”
For the open field test, rats were habituated to the open field for 2 minutes each day for three consecutive days before the final 2 minute test session in which GLYX-13 or vehicle was administered. Open field activity was recorded by a video camera mounted above the open field area, and number of center crosses in the open field was measured.
A second experiment was performed in the same manner as Example 3, except that groups of 8-10 two- to three-month old male Sprague-Dawley rats pretreated with either intravenous (1, 3, 10, 32 mg / kg), subcutaneous (1, 3, 10, 32, 56, 100 mg / kg) injections of GLYX-13, ketamine (10 mg/kg i.p.) or saline vehicle (1 mg / ml) 15 min (i.v.), 20 (s.c.) or 60 (i.p.) min before the start of the 5 min test session. Each data point represents a group of 8-10 rats. The average (mean) amount of time animals spent in the center of the field was measured.
To evaluate whether the anti-depressive and anxiolytic effects of GLYX-13 would persist beyond a few hours, rats were tested in the Porsot test and the Open Field test, described above. […] Mean (± SEM) time (sec.) spent floating in the Porsolt test, time spent in the center compartment (sec.), and line crosses in the open field test were determined.

rats [3] = experiment: 50-kHz ultrasonic vocalizations model of positive affect (rough-and-tumble play); assay type: in vivo; conditions: Example 8; 10 mg/kg i.v., 10-15 min before test; FBNF1 rats; Mean ± SEM; P < .01
Description: To evaluate the hedonic effect of GLYX-13 in this study, the 50-kHz ultrasonic vocalizations model of positive affect was examined in rats (see, Burgdorf, J., Panksepp, J., Brudzynski, S.M., Kroes, R.A. & Moskal, J.R. (2008). The effect of selective breeding for differential rates of 50-kHz ultrasonic vocalizations on emotional behavior in rats. Devel. Psychobiology, 51, 34-46.).
As a part of the study, two groups of three month old FBNF1 rats were used. The first group was composed of 13 rats and the second group was composed of 11 rats. The first group of rats was intravenously injected with 10mg/kg GLYX-13 and the second group of rats was intravenously injected with PBS vehicle (1 ml/kg) in a blind manner via chronic […] femoral vein access ports. Both groups of rats were injected 10 to 15 minutes before the start of test.
For hedonic ultrasonic vocalizations (USVs), animals received 2 minutes of heterospecific RTP habituation before the final 2 minutes test session.

[4] = system: rat hippocampal organotypic cultures; experiment: LTP / LTD in hippocampal organotypic cultures; assay type: cell-based; conditions: in vitro
rats [5] = experiment: Porsolt test (Forced Swim Test) of depression; assay type: in vivo; design: Mean Immobility Time: unit not given beside the values
[6] = Example 7, 3 mg / kg i.v., Sprague-Dawley rats

L-threonyl-L-prolyl-L-prolyl-L-threonine amide (TPPT-NH2) [GLYX-13, NMDAR glycine-site partial agonist]
reduction in floating compared to PBS vehicle (rats [1]; Example 1, 10 mg/kg i.v., 10-15 min before test, three month old FBNF1 rats, Mean ± SEM, P < .0001): 56.4 ± 4.6% | maximum reduction in floating compared to saline vehicle (rats [1]; administered intravenously, Sprague-Dawley rats, Mean ± SEM): 50 ± 10% | maximum reduction in floating compared to saline vehicle (rats [1]; administered subcutaneously, Sprague-Dawley rats, Mean ± SEM): 43 ± 7% | Mean Immobility Time (rats [1]; i.v., dose 3 (mg/kg), 15 min before test, Sprague-Dawley rats): 66.14 ±27.53 | Mean Immobility Time (rats [1]; i.v., dose 10 (mg/kg), 15 min before test, Sprague-Dawley rats): 60.6 ±14.7 | Mean Immobility Time (rats [1]; i.v., dose 32 (mg/kg), 15 min before test, Sprague-Dawley rats): 87.19±17.85 | Mean Immobility Time (rats [1]; s.c., dose 1 (mg/kg), 20 min before test, Sprague-Dawley rats): 135.5 ±22.0 | Mean Immobility Time (rats [1]; s.c., dose 3 (mg/kg), 20 min before test, Sprague-Dawley rats): 100.2 ±15.7 | Mean Immobility Time (rats [1]; s.c., dose 10 (mg/kg), 20 min before test, Sprague-Dawley rats): 76.9 ±9.7 | Mean time spent immobile (rats [1]; Example 3, MPFC injection, dose 1 (ug / side), FBNF1 rats, Mean ± SEM): 53.46 ±10.65 | Mean time spent immobile (rats [1]; Example 3, MPFC injection, dose 10 (ug / side), FBNF1 rats, Mean ± SEM): 62.54±8.7 | reduction in floating compared to a saline control or to GLYX-13 injected into motor cortex (rats [1]; Example 3, injected bilaterally into the MPFC, FBNF1 rats, 20 min post injection, Mean ± SEM): 50 ± 5% | Mean time spent immobile (rats [1]; Example 3, injected into motor cortex (dorsal control), FBNF1 rats, Mean ± SEM): 113.7 ±13.1 | reduction in mean floating time compared to saline injection or scrambled peptide (rats [1]; Example 4, 3 mg / kg i.v. tail vein, 60 min before test, Sprague Dawley rats, Mean ± SEM): 70 ± 5% | reduction in mean floating time compared to saline control (rats [1]; Example 7, 3 mg / kg i.v., tested 96 hrs post dosing, Sprague-Dawley rats, mean ± SEM): 82% ± 2 | duration of antidepressant effects of a single administration (rats [1]; [6]): up to 4 days | onset of action (rats [1]; single dose, rats): within minutes | increase in center crosses compared to vehicle (rats [2]; Example 5, 10 mg/kg i.v., 10-15 min before test, FBNF1 rats, Mean ± SEM, P < .005): 172.6 ± 34.3% | increase in the amount of time spent in the center of the field compared to vehicle (rats [2]; intravenous administration, 15 min before test, Sprague-Dawley rats, Mean ± SEM): 42± 5% | increase in the amount of time spent in the center of the field compared to vehicle (rats [2]; subcutaneous administration, 20 min before test, Sprague-Dawley rats, Mean ± SEM): 36 ± 5% | increase in mean center time compared to saline control (rats [2]; Example 7, 3 mg / kg i.v., tested 120 hrs post dosing, Sprague-Dawley rats, mean ± SEM): 125% ± 5 | duration of anxiolytic effects of a single administration (rats [2]; [6]): up to 5 days | increase in rates of play-induced positive affective 50-kHz USVs compared to vehicle (rats [3]): 178.5 ± 48.3% | long-term depression (LTD) [4]: reducing | long-term potentiation (LTP) [4]: markedly elevate | Mean Immobility Time (rats [5]; Example 2, i.v., dose printed as 2, 15 min before test, Sprague-Dawley rats): 84.9 ±15.0 | Mean time spent immobile (rats [5]; Example 3, MPFC injection, dose 0.1 (ug / side), FBNF1 rats, Mean ± SEM): 108.77 ±12.34
